Data from paper PMC12410356 (International Journal for Parasitology: Drugs and Drug …, 2025).

What was measured:
[1] = tested on: E. multilocularis metacestode vesicles; assay: Phosphoglucose isomerase (PGI) release assay (damage-marker release) on metacestode vesicles; type: cell-based, Echinococcus multilocularis; conditions: 10 μM; for PGI d5 (relative PGI release): 5 days; for PGI d12 (relative PGI release): 12 days
[2] = tested on: E. multilocularis metacestode vesicles; assay: Metacestode vesicle viability assay (ATP, CellTiter-Glo); type: cell-based, Echinococcus multilocularis
Method: Viability was assessed after 12 days using the same metacestode vesicles as for the PGI release assay. Triton X-100 was added to each well to a final concentration of 0.1 %. Subsequently the metacestode vesicles were broken mechanically and 50 μL of the supernatant was mixed with 50 μL of CellTiter-Glo® buffer (Promega, Dübendorf, Switzerland). Measurements were performed on a HIDEX Sense microplate reader.

[3] = overview screen, singlets, relative to 0.1 % Triton X-100, DMSO subtracted
[4] = overview screen, 10 μM, singlets, 12 days, relative to DMSO control
[5] = confirmation screen, triplicates, mean
[6] = confirmation screen, 10 μM, triplicates, mean, 12 days

SMILES	PGI d5 (relative PGI release) [1, 3] [%]	PGI d12 (relative PGI release) [1, 3] [%]	Viability d12 (relative viability) [2, 4] [%]	Viability d12 (relative viability) ([2]; 10 µM) [%]	PGI d5 (relative PGI release) [1, 5] [%]	PGI d12 (relative PGI release) [1, 5] [%]	Viability d12 (relative viability) [2, 6] [%]
Cn1cncc1[C@@](N)(c1ccc(Cl)cc1)c1ccc2c(c1)c(-c1cccc(Cl)c1)cc(=O)n2C [MMV658803]	0.7883	-2.529	92.252				
O=C(NCc1cccc2ccccc12)c1cccs1 [MMV1579845]	-2.677	-26.5326	53.7721				
OCCC#Cc1nc(-c2ccc(F)cc2)c(-c2ccncc2)n1CCCc1ccccc1 [MMV1580797]	0.809	-17.1938	270.956				
COc1cc2c(O)c3c(c(-c4ccc5c(c4)OCO5)c2cc1OC)C(=O)OC3 [MMV102270]	-1.791	18.1463	116.78				
O=C(O)/C=C/C=C/c1cccc(Oc2cc(Cl)cc(Cl)c2)c1 [MMV1633963]	0.04404	0.4233	136.634				
COc1ccc(C[C@@H](C)[C@@H](C)Cc2ccc(OC)c(OC)c2)cc1OC [MMV1581036]	0.565	2.335	132.486				
O=C1[C@H](CC[C@H](O)c2ccc(F)cc2)[C@@H](c2ccc(O)cc2)N1c1ccc(F)cc1 [MMV1581377]	-0.5323	22.6699	84.8656				
Fc1ccc2c(/C=C/c3cccnc3)c[nH]c2c1 [MMV1578889]	-2.006	1.559	96.8566				
O=C(O)c1ccc(-n2nc(-c3ccccc3O)nc2-c2ccccc2O)cc1 [MMV640014]	-1.416	-24.5374	145.619				
Cl.N=C(N)c1ccc(COc2ccc(Cl)cc2)cc1 [MMV1579844]	-0.5727	10.4621	5.845				
FC(F)(F)c1cc(C(F)(F)F)c2ccc3nc(-c4nnco4)cn3c2n1 [MMV690555]	0.9496	0.5886	300.676				
CNCC(=O)OCc1cccnc1N(C)C(=O)OC(C)[n+]1cnn(C[C@](O)(c2cc(F)ccc2F)[C@@H](C)c2nc(-c3ccc(C#N)cc3)cs2)c1 (stereo partly drawn) [MMV1634494]	-2.972	-24.8266	42.7505				
CCc1cc(CCC(=O)Nc2ccccc2O)c(=O)[nH]c1C [MMV1782106]	1.217	-17.9747	488.194				
O=C(Nc1ccccc1)N(Cc1cc(Br)ccc1O)c1ccc(F)cc1 [MMV1581552]	-0.185	-25.2603	81.6601				
CCOC(=O)N[C@@H]1CC[C@@H]2[C@@H](C1)C[C@H]1C(=O)O[C@H](C)[C@H]1[C@H]2/C=C/c1ccc(-c2cccc(F)c2)cn1 [MMV1593515]	1.1006	-17.1599	74.5757				
CCOc1noc2cc(OCCC3CCN(c4ccc(C)nn4)CC3)ccc12 [MMV1634071]	0.1516	-20.1339	88.166				
CCN(CC)S(=O)(=O)c1ccc(Cl)c(C(=O)Nc2sc3c(c2C#N)CCCC3)c1 [MMV1634384]	0.5897	3.142	106.793				
O=C(/C=C/n1cnc(-c2cc(C(F)(F)F)cc(C(F)(F)F)c2)n1)NNc1cnccn1 [MMV1593517]	1.037	-18.0019		95.9515			

SMILES	PGI d5 (relative PGI release) [1, 3] [%]	PGI d12 (relative PGI release) [1, 3] [%]	Viability d12 (relative viability) [2, 4] [%]	Viability d12 (relative viability) ([2]; 10 µM) [%]	PGI d5 (relative PGI release) [1, 5] [%]	PGI d12 (relative PGI release) [1, 5] [%]	Viability d12 (relative viability) [2, 6] [%]
N[C@H]1CCC[C@H]1C(=O)O [MMV1634361]	0.2611	0.2526	78.6856				
CC(N)C12CC3CC(CC(C3)C1)C2 (stereo not drawn) [MMV637855]	0.08745	-0.5462	63.7477				
NC[C@H]1O[C@H](O[C@H]2[C@H](O)[C@@H](O[C@H]3O[C@H](CO)[C@@H](O)[C@H](N)[C@H]3O)[C@H](N)C[C@@H]2N)[C@H](N)C[C@@H]1O [MMV002459]	-1.087	-12.65	35.1523				
O=C(c1cc(O)nc2ccccc12)N1CCN(c2ccccc2)CC1 [MMV596723]	0.1357	-19.4413	136.964				
O=C(Nc1ncc(Cc2cccc3ccccc23)s1)C1CCCCC1 [MMV1593532]	-1.117	-3.615	94.209				
CC(C)N(c1cc(-c2ccccc2)sc1C(=O)O)C(=O)[C@H]1CC[C@H](C)CC1 [MMV1634388]	1.026	40.2559	13.9085		0.59	0.29	128.08
COc1ccccc1CN[C@H]1C2CCN(CC2)[C@H]1C(c1ccccc1)c1ccccc1 [MMV690480]	-0.6012	-18.8913	61.0456				
CCCCN1C[C@H](O)[C@@H](O)[C@H](O)[C@H]1CO [MMV1782098]	-0.9049	-0.1991	82.1234				
CC1(C)Cc2c(C#N)c(SCCc3ccccc3)nc(N3CCOCC3)c2CO1 [MMV1549626]	-2.265	-14.2052	93.3497				
CCCCOC(=O)Nc1cc2nc(C3CCCCC3)[nH]c2cc1N(CC)CC [MMV1578842]	1.645	57.0254	6.68		-0.74	0.24	57.98
O=S(=O)(Nc1ccccc1)c1ccc(NC(=S)Nc2ccccc2)cc1 [MMV1578562]	-3.292	-3.243	118.128				
CC(C)C(=O)N[C@H]1[C@H]([C@H](O)[C@H](O)CO)OC(C(=O)O)=C[C@@H]1N=[N+]=[N-] [MMV1782111]	-0.6196	0.1424	85.5263				
CCCCCCCCC(CP(=O)(O)C(C)N)C(=O)O (stereo not drawn) [MMV1582487]	-0.4977	-10.5393	34.1503				
O=C(Nc1ccc(N2CCN(C(=O)c3ccccc3)CC2)cc1)c1ccc2c(c1)OCO2 [MMV1580505]	-0.142	-0.2928	160.891				
CCn1cc(C(=O)O)c(=O)c2cc(F)c(N3CCNC(C)C3)c(F)c21.Cl (stereo not drawn) [MMV002350]	0.8503	0.3517		92.559			
c1cc(CN2CCCNCCNCCCNCC2)ccc1CN1CCCNCCNCCCNCC1 [MMV1580502]	-0.2909	2.621	124.773				
CC(C)(C)NC(=O)N[C@H](C(=O)N1C[C@H]2[C@@H]([C@H]1C(=O)NC(CC1CCC1)C(=O)C(N)=O)C2(C)C)C(C)(C)C (stereo partly drawn) [MMV1580497]	0.3266	69.2218	40.5469				
